The results in this text go back to patent US8163771B2, “11 β-HSD1 modulators” (Exelixis, Inc., priority 2008, dated 2012).

The term IC50 denotes the midpoint of a concentration-inhibition curve.

For the experiment, the target named is T1, recombinant human 11 β-HSD1 (Homo sapiens, UniProt P28845).
T1 construct: made in house; host or cells: E. coli
T1 sequence (P28845 whole entry): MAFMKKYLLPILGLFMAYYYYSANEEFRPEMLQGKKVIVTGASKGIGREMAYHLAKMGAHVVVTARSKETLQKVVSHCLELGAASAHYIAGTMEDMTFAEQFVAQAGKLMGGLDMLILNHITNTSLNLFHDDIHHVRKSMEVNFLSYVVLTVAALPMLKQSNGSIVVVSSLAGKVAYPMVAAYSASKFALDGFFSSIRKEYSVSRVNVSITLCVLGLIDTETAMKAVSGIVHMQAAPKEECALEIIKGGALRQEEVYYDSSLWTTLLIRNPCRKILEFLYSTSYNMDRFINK
Put plainly: 11 β-HSD1 SPA Assay (Scintillation Proximity Assay). In kind it is biochemical. In a few lines:
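Scintillation proximity read-out of cortisol formed from 40 nM [3H]cortisone by purified recombinant human enzyme (30-100 nM, E. coli) with 1 mM NADPH, pH7.4, 2 hours at room temperature; beads with cortisol antibody and glycyrrhetinic acid stop the reaction, read next day. IC50 derived from inhibition normalised to background and maximal wells.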
For orientation: In a scintillation proximity assay essentially only radioactivity close to the scintillant gives light.
Regarding `CC(C)(Oc1cc(F)ccc1Cl)C(=O)N[C@H]1C[C@H]2CC[C@@H](C1)N2c1ccc(C(=O)NC2CC2)cn1` [Example 69, 6-[3-endo-({2-[(2-chloro-5-fluorophenyl)oxy]-2-methylpropanoyl}amino)-8-azabicyclo[3.2.1]oct-8-yl]-N-cyclopropylpyridine-3-carboxamide], the IC50 is below 200 nM. Regarding `CC(C)(Oc1ccc(Cl)cc1Cl)C(=O)NC1CC2CCC(C1)N2c1ccc(C(=O)NCC(O)C(F)(F)F)cn1` (stereo not drawn) [Example 421, 6-(3-endo-{[2-(2,4-dichlorophenoxy)-2-methylpropanoyl]amino}-8-azabicyclo[3.2.1]oct-8-yl)-N-(3,3,3-trifluoro-2-hydroxypropyl)pyridine-3-carboxamide], the IC50 is below 200 nM. Then `CC(C)(Oc1cc(F)c(F)cc1Cl)C(=O)N[C@H]1C[C@H]2CC[C@@H](C1)N2c1ccc(C(N)=O)cn1` [Example 96, 6-[3-endo-({2-[(2-chloro-4,5-difluorophenyl)oxy]-2-methylpropanoyl}amino)-8-azabicyclo[3.2.1]oct-8-yl]pyridine-3-carboxamide], with below 200 nM; and `Cc1ccc(C2(C(=O)N[C@H]3C[C@H]4CC[C@@H](C3)N4c3ccc(C(=O)NC4CC4)cn3)CC2)cc1` [Example 23, N-cyclopropyl-6-[3-endo-({[1-(4-methylphenyl)cyclopropyl]carbonyl}amino)-8-azabicyclo[3.2.1]oct-8-yl]pyridine-3-carboxamide], with below 200 nM. Then `CC(C)(Oc1ccc(F)c(Cl)c1Cl)C(=O)N[C@H]1C[C@H]2CC[C@@H](C1)N2c1ccc(C(=O)NCC(F)F)cn1` [Example 441, 6-(3-endo-{[2-(2,3-dichloro-4-fluorophenoxy)-2-methylpropanoyl]amino}-8-azabicyclo[3.2.1]oct-8-yl)-N-(2,2-difluoroethyl)pyridine-3-carboxamide], with below 200 nM. For `CC(C)(Oc1ccc(F)c(C(F)(F)F)c1)C(=O)N[C@H]1C[C@H]2CC[C@@H](C1)N2c1ccc(S(C)(=O)=O)cn1` [Example 272, 2-{[4-fluoro-3-(trifluoromethyl)phenyl]oxy}-2-methyl-N-{8-[5-(methylsulfonyl)pyridin-2-yl]-8-azabicyclo[3.2.1]oct-3-endo-yl}propanamide], the IC50 was below 2000 nM.

As for `CC(C)(Oc1ccc(Cl)cc1Cl)C(=O)N[C@H]1C[C@H]2CC[C@@H](C1)N2c1ccc(NC(=O)CC(F)(F)F)cc1Cl` [Example 138, N-{3-chloro-4-[3-endo-({2-[(2,4-dichlorophenyl)oxy]-2-methylpropanoyl}amino)-8-azabicyclo[3.2.1]oct-8-yl]phenyl}-3,3,3-trifluoropropanamide], the half-inhibitory concentration (IC50) is below 2000 nM. With `Cc1cc(F)ccc1OC(C)(C)C(=O)N[C@H]1C[C@H]2CC[C@@H](C1)N2c1ccc(S(N)(=O)=O)cn1` [Example 218, N-{8-[5-(aminosulfonyl)pyridin-2-yl]-8-azabicyclo[3.2.1]oct-3-endo-yl}-2-[(4-fluoro-2-methylphenyl)oxy]-2-methylpropanamide], the half-inhibitory concentration (IC50) was below 200 nM. Take `CC(C)(Oc1cc(F)c(F)cc1Cl)C(=O)N[C@H]1C[C@H]2CC[C@@H](C1)N2c1ccc(C(=O)NCC(F)(F)F)cn1` [Example 75, 6-[3-endo-({2-[(2-chloro-4,5-difluorophenyl)oxy]-2-methylpropanoyl}amino)-8-azabicyclo[3.2.1]oct-8-yl]-N-(2,2,2-trifluoroethyl)pyridine-3-carboxamide]: the concentration for half-maximal inhibition (IC50) was below 200 nM.

In the case of `CC(C)(Oc1ccc(F)cc1C(C)(C)O)C(=O)N[C@H]1C[C@H]2CC[C@@H](C1)N2c1ccc(C(=O)NCC(F)F)cn1` [Example 467, N-(2,2-difluoroethyl)-6-(3-endo-(2-(4-fluoro-2-(2-hydroxypropan-2-yl)phenoxy)-2-methylpropanamido)-8-azabicyclo[3.2.1]octan-8-yl)nicotinamide], the 50% inhibitory concentration (IC50) is below 200 nM. Then `CC(C)(Oc1cc(F)ccc1Cl)C(=O)N[C@H]1C[C@H]2CC[C@@H](C1)N2c1ccc(C(=O)NCC(F)(F)F)cn1` [Example 73, 6-[3-endo-({2-[(2-chloro-5-fluorophenyl)oxy]-2-methylpropanoyl}amino)-8-azabicyclo[3.2.1]oct-8-yl]-N-(2,2,2-trifluoroethyl)pyridine-3-carboxamide], with below 200 nM; and `CC(C)(Oc1ccc(Cl)c(Cl)c1)C(=O)N[C@H]1C[C@H]2CC[C@@H](C1)N2c1ccc(C(=O)NCC(F)(F)F)cc1` [Example 166, 4-[3-endo-({2-[(3,4-dichlorophenyl)oxy]-2-methylpropanoyl}amino)-8-azabicyclo[3.2.1]oct-8-yl]-N-(2,2,2-trifluoroethyl)benzamide], with below 200 nM; and `CC(C)(Oc1ncc(Cl)cc1Cl)C(=O)N[C@H]1C[C@H]2CC[C@@H](C1)N2c1ccc(C(=O)NCC(F)(F)F)cn1` [Example 107, 6-[3-endo-({2-[(3,5-dichloropyridin-2-yl)oxy]-2-methylpropanoyl}amino)-8-azabicyclo[3.2.1]oct-8-yl]-N-(2,2,2-trifluoroethyl)pyridine-3-carboxamide], with below 200 nM.

As for `O=C(NC1CC1)c1ccc(N2C3CCC2CC(NC(=O)C2(c4ccc(Cl)cc4)CCCC2)C3)nc1` (centres unmarked) [Example 7, 6-[3-({[1-(4-chlorophenyl)cyclopentyl]carbonyl}amino)-8-azabicyclo[3.2.1]oct-8-yl]-N-cyclopropylpyridine-3-carboxamide], the IC50 is below 200 nM.

Consider `CC(C)(Oc1ccc(F)cc1C(F)(F)F)C(=O)N[C@H]1C[C@H]2CC[C@@H](C1)N2c1ccc(S(C)(=O)=O)cc1` [Example 250, 2-{[4-fluoro-2-(trifluoromethyl)phenyl]oxy}-2-methyl-N-{8-[4-(methylsulfonyl)phenyl]-8-azabicyclo[3.2.1]oct-3-endo-yl}propanamide], for which the 50% inhibitory concentration (IC50) is below 200 nM. Then `CC(C)(Oc1cc(-c2ccc(F)cc2)ccc1Cl)C(=O)N[C@H]1C[C@H]2CC[C@@H](C1)N2c1ccc(C(N)=O)cn1` [Example 346, 6-[3-endo-({2-[(4-chloro-4′-fluorobiphenyl-3-yl)oxy]-2-methylpropanoyl}amino)-8-azabicyclo[3.2.1]oct-8-yl]pyridine-3-carboxamide], with below 200 nM. For `CC(C)(Oc1ccc(F)cc1C(F)(F)F)C(=O)N[C@H]1C[C@H]2CC[C@@H](C1)N2c1ccc(S(C)(=O)=O)cn1` [Example 176, 2-{[4-fluoro-2-(trifluoromethyl)phenyl]oxy}-2-methyl-N-{8-[5-(methylsulfonyl)pyridin-2-yl]-8-azabicyclo[3.2.1]oct-3-endo-yl}propanamide], the IC50 was below 200 nM. For the compound `CC(C)(Oc1cc(OCC(=O)O)c(Cl)cc1Cl)C(=O)N[C@H]1C[C@H]2CC[C@@H](C1)N2c1ccc(C(=O)NCC(F)(F)F)cn1` [Example 413, 2-(2,4-dichloro-5-(2-methyl-1-oxo-1-(8-(5-(2,2,2-trifluoroethylcarbamoyl)pyridin-2-yl)-8-azabicyclo[3.2.1]octan-3-endo-ylamino)propan-2-yloxy)phenoxy)acetic acid], the IC50 was below 200 nM. For the compound `C[C@H](NC(=O)c1ccc(N2C3CCC2CC(NC(=O)C(C)(C)Oc2ncc(Cl)cc2Cl)C3)nc1)C(F)(F)F` (stereo partly drawn) [Example 417, 6-[3-endo-({2-[(3,5-dichloropyridin-2-yl)oxy]-2-methylpropanoyl}amino)-8-azabicyclo[3.2.1]oct-8-yl]-N-[(2S)-1,1,1-trifluoropropan-2-yl]pyridine-3-carboxamide], the IC50 was below 200 nM.

Turning to `CC(C)(Oc1ccc(Cl)cc1Cl)C(=O)N[C@H]1C[C@H]2CC[C@@H](C1)N2c1ccc(N)cn1` [Example 88, N-[8-(5-aminopyridin-2-yl)-8-azabicyclo[3.2.1]oct-3-endo-yl]-2-[(2,4-dichlorophenyl)oxy]-2-methylpropanamide], the IC50 is below 200 nM. In the case of `CC(C)(Oc1ccc(Cl)cc1C(F)(F)F)C(=O)N[C@H]1C[C@H]2CC[C@@H](C1)N2c1ccc(C(=O)NCC(F)(F)F)cn1` [Example 144, 6-{3-endo-[(2-{[4-chloro-2-(trifluoromethyl)phenyl]oxy}-2-methylpropanoyl)amino]-8-azabicyclo[3.2.1]oct-8-yl}-N-(2,2,2-trifluoroethyl)pyridine-3-carboxamide] it was below 200 nM; in that of `CC(C)(Oc1ccc(Cl)c(Cl)c1)C(=O)N[C@H]1C[C@H]2CC[C@@H](C1)N2c1ccc(NS(C)(=O)=O)cc1` [Example 329, 2-[(3,4-dichlorophenyl)oxy]-2-methyl-N-(8-{4-[(methylsulfonyl)amino]phenyl}-8-azabicyclo[3.2.1]oct-3-endo-yl)propanamide], below 200 nM; in that of `CC(C)(Oc1ccc(Cl)cc1Cl)C(=O)N[C@H]1C[C@H]2CC[C@@H](C1)N2c1ccc(S(N)(=O)=O)cn1` [Example 125, N-{8-[5-(aminosulfonyl)pyridin-2-yl]-8-azabicyclo[3.2.1]oct-3-endo-yl}-2-[(2,4-dichlorophenyl)oxy]-2-methylpropanamide], below 200 nM. In the case of `CC(C)(Oc1cc(OCCN2CCOCC2)c(Cl)cc1Cl)C(=O)N[C@H]1C[C@H]2CC[C@@H](C1)N2c1ccc(C(=O)NCC(F)(F)F)cn1` [Example 407, 6-(3-endo-(2-(2,4-dichloro-5-(2-morpholinoethoxy)phenoxy)-2-methylpropanamido)-8-azabicyclo[3.2.1]octan-8-yl)-N-(2,2,2-trifluoroethyl)nicotinamide] it was below 200 nM; in that of `CC(C)(Oc1ccc(-c2ccc(F)cc2)cc1Cl)C(=O)N[C@H]1C[C@H]2CC[C@@H](C1)N2c1ccc(C(N)=O)cn1` [Example 282, 6-[3-endo-({2-[(3-chloro-4′-fluorobiphenyl-4-yl)oxy]-2-methylpropanoyl}amino)-8-azabicyclo[3.2.1]oct-8-yl]pyridine-3-carboxamide], below 200 nM; in that of `O=C(NC1CC1)c1ccc(N2[C@@H]3CC[C@H]2C[C@@H](NC(=O)C2(c4ccc(F)c(F)c4)CC2)C3)nc1` [Example 28, N-cyclopropyl-6-[3-endo-({[1-(3,4-difluorophenyl)cyclopropyl]carbonyl}amino)-8-azabicyclo[3.2.1]oct-8-yl]pyridine-3-carboxamide], below 200 nM.
